Measurements as given in US20260327570A1, “METHOD FOR PRODUCING ORGANOIDS” (Chungnam National University Hospital, priority 2022, published 2026).

System: lung cancer organoids from lung cancer tissue exhibiting EGFR mutations
Experiment: Drug sensitivity test of lung cancer organoids (CellTiter-Glo 3D cell viability; calcein-AM staining)
Type: cell-based, human
Settings: for AUC (area under the curve) / IC50: EGFR-mutant lung cancer organoids, six concentrations, drug treatment for 3 days, viability on day 6; for IC50: Homo sapiens; for sensitivity of lung cancer organoids from EGFR-mutant lung cancer patients: result in words, EGFR-TKIs vs ALK inhibitors, consistent with the clinical response of EGFR-mutant patients
Procedure: The experimental overview is conceptually illustrated in FIG. 12.
The organoids were harvested and mixed with Matrigel (Corning Life Sciences, USA, catalog #354263) and seeded onto pillar plates at 5×10^5 cells/mL. Next, the Matrigel-cell mixture (1.5 μL) was spotted onto the coated pillar plates using a pre-cooled ASFA spotter (Medical & Bio Decision, Suwon, Republic of Korea) and incubated in an inverted position at 4 °C for 15 minutes to allow cells to aggregate at the bottom of the spots. The plates were then placed in humidity chamber at 37 °C to allow the spot to gel. Subsequently, the plates were combined with well plates containing fresh medium. After 3 days, cells were treated with EGFR or ALK targeting agents at six concentrations using the ASFA spotter. Cell viability was measured by staining with 0.5 μM calcein-AM at 37 °C for 1 hour, followed by two PBS washes for 20 minutes. The organoid spots were scanned using an automated optical fluorescence scanner (ASFA scanner, Medical & Bio Decision, Korea) The scanner's microscope automatically focused on cell spots by moving in the z-direction, capturing 384 individual images at 4× magnification from one stained pillar/well plate. The images were then integrated into a single JPEG image for data analysis. The scanned images were analyzed using CellAnalyzer version 2.0 (Medical & Bio Decision). After scanning the cells, the organoid spots were transferred to new 384-well plates containing CellTiter-Glo 3D reagent to measure intracellular ATP levels via luminescence activity.
In brief, a total of 5000 single cells per pillar of the plate were seeded in 1.5 μL medium and cultured for 3 days. Subsequently, various EGFR-TKIs and ALK inhibitors were administered at multiple doses for 3 days to determine IC50 and AUC (area under the curve). On day 6, organoid viability was confirmed using fluorescent dye Calcein-AM (see FIG. 13), and survival rates for each drug were measured using CellTiter-Glo 3D cell viability assay (G9681; Promega) (see FIG. 14).

IC50 [nM]	SMILES	AUC (area under the curve)	sensitivity of lung cancer organoids from EGFR-mutant lung cancer patients
790	CN(C)C/C=C/C(=O)Nc1cc2c(Nc3ccc(F)c(Cl)c3)ncnc2cc1O[C@H]1CCOC1 [Afatinib]	125.1	showed sensitivity
> 50000	CCc1cc2c(cc1N1CCC(N3CCOCC3)CC1)C(C)(C)c1[nH]c3cc(C#N)ccc3c1C2=O [Alectinib]	240.9	
7100	C[C@@H](Oc1cc(-c2cnn(C3CCNCC3)c2)cnc1N)c1c(Cl)ccc(F)c1Cl [Crizotinib]	177.2	

SMILES	IC50 [nM]	AUC (area under the curve)	sensitivity of lung cancer organoids from EGFR-mutant lung cancer patients
C=CC(=O)Nc1cc(Nc2nccc(-c3cn(C)c4ccccc34)n2)c(OC)cc1N(C)CCN(C)C [Osimertinib]	1800	133.9	showed sensitivity
